In brackets after ≈: the same amount, converted by molar mass. Like-named read-outs stand apart in the source and are kept apart here.
Experiments:
[1] = target: human wild-type CFTR (Homo sapiens, UniProt P13569); experiment: YFP fluorescence quenching assay of CFTR channel activity; format: cell-based; settings: for fold less potent than Cact-3: YFP EC50 vs Cact-3
[2] = Thermodynamic solubility in PBS; format: physicochemical; settings: for fold more soluble than Cact-3: PBS solubility vs Cact-3; for Solubility: PBS (pH 7.5), concentration after 90 min of vortexing, ND: not detected
[3] = test system: normal female C57BL/6J mice; experiment: Tear volume in normal mice; format: in vivo, mouse; settings: for effect on tear volume: 16d up to 1 mM, Cact-3 up to 72 μM
[4] = Maximum solubility for eye drop administration; format: physicochemical
[5] = test system: IL-17 mRNA; settings: mouse, in vivo
[6] = test system: scopolamine-induced dry eye mouse model; experiment: Tear volume in scopolamine-induced dry eye mouse model; format: in vivo; settings: DED mice; 5 μL eye drops three times a day for 10 days; 16d 2060 μM, 0.3% diquafosol sodium
[7] = test system: intracellular cAMP; experiment: Intracellular cAMP measurement in CHO-K1 cells; format: cell-based; settings: 30 μM, 10 min, IBMX 100 μM, compared to the control
[8] = test system: conjunctival epithelial (ConjE) cells; experiment: Conjunctival epithelial cytotoxicity test; format: cell-based, human; settings: 30 μM, 48 h, MTS assay
[9] = test system: MMP-2 mRNA; settings: mouse, in vivo
[10] = target: T1, human ANO1 (Homo sapiens, UniProt Q5XXA6); experiment: ANO1 apical membrane current in FRT cells expressing human ANO1; format: cell-based; settings: 16d 30 μM, Ani9 10 μM; ANO1 activated by 100 μM ATP
T1 sequence (Q5XXA6 1-986): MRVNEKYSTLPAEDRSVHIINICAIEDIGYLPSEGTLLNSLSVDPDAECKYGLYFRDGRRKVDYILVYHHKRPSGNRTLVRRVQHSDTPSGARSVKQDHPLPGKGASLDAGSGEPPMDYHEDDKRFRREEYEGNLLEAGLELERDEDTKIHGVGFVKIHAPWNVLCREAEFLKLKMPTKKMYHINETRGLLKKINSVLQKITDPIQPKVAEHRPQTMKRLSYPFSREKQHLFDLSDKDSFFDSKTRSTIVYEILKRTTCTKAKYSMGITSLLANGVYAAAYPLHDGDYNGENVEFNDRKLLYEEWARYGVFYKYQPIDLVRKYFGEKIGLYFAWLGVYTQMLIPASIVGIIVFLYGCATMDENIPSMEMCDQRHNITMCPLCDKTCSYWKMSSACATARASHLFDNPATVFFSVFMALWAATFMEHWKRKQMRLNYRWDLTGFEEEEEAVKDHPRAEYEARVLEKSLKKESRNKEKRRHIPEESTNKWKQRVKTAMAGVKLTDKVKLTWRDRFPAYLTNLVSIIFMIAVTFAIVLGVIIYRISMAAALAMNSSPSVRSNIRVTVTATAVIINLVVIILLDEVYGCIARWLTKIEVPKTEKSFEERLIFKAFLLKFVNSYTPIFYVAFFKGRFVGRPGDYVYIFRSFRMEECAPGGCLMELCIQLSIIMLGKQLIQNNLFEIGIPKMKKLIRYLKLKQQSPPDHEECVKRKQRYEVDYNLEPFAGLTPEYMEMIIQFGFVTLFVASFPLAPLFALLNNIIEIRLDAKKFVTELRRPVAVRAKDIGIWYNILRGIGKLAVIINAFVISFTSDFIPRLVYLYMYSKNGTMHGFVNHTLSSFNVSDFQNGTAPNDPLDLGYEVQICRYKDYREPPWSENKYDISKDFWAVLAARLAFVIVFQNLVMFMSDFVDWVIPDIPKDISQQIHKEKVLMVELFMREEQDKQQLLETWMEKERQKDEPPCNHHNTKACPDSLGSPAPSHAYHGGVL

[11] = test system: TNF-α mRNA; settings: mouse, in vivo
[12] = test system: scopolamine-induced dry eye mouse model; experiment: Corneal erosion grading in scopolamine-induced dry eye mouse model; format: in vivo; settings: DED mice; 16d 2060 μM three times a day for 10 days; compared to control group
[13] = test system: corneal epithelial (CorE) cells; experiment: Corneal epithelial cytotoxicity test; format: cell-based, human; settings: 30 μM, 48 h, MTS assay
[14] = test system: volume-regulated anion channel (VRAC); experiment: VRAC activity by YFP fluorescence quenching assay; format: cell-based; settings: 16d 30 μM, VI-116 10 μM; hypotonic solution 5 min
[15] = format: in vivo, New Zealand White Rabbit; settings: rabbit; for AUC0-24 / AUC0-inf / AUC0-last: 0.1 mg/eye
[16] = test system: IL-1β mRNA; settings: mouse, in vivo
[17] = target: T2, human CFTR (Homo sapiens, UniProt P13569); experiment: Apical membrane current in FRT cells expressing human CFTR; format: cell-based; settings: 10 μM CFTRinh-172
[18] = target: endogenous CFTR channels (Homo sapiens, UniProt P13569); settings: 10 μM CFTRinh-172; primary cultured human conjunctival epithelial cells
[19] = target: T2, human CFTR; settings: 20 μM CFTRinh-172; CHO-K1 cells expressing human CFTR

human wild-type CFTR, sequence (P13569 whole entry): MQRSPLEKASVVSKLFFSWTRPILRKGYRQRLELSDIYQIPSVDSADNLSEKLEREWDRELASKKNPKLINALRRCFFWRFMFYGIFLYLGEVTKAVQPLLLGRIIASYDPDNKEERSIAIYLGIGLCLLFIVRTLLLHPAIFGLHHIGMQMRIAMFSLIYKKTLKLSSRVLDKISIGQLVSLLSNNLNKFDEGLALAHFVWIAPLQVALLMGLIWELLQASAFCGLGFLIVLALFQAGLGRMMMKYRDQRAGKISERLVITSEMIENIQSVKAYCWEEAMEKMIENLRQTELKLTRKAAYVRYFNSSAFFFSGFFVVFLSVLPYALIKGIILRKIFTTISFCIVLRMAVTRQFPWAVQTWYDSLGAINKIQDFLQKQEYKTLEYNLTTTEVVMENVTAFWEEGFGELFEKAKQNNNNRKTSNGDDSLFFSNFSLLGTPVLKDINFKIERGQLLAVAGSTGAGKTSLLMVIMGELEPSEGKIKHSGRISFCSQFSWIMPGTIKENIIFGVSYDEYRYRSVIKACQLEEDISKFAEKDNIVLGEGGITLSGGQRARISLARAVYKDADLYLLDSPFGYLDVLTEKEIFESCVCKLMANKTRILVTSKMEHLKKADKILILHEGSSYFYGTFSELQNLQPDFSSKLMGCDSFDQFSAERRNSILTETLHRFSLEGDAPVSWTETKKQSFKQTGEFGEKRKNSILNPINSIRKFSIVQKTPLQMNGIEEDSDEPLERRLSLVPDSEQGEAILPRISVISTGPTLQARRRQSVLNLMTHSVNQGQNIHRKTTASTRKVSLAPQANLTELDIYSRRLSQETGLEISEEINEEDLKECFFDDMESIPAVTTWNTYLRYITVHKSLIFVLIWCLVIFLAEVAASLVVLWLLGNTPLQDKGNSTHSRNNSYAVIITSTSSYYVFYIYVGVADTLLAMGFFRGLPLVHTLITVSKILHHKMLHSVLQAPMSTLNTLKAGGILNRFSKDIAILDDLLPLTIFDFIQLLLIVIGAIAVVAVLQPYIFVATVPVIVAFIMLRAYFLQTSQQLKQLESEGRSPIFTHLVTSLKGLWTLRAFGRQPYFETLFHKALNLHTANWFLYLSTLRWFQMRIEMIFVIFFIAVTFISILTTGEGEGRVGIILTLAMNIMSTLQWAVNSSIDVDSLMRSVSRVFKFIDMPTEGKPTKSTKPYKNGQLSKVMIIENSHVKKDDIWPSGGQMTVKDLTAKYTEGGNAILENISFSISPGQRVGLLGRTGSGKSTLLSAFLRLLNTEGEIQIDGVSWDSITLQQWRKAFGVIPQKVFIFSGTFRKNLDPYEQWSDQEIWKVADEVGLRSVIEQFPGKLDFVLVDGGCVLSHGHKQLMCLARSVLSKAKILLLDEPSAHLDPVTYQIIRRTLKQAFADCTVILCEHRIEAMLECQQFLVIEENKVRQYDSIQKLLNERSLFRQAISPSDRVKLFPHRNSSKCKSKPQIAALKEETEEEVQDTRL
T2 sequence (P13569 whole entry): as above
endogenous CFTR channels, sequence (P13569 whole entry): as above

## COc1ccc(-c2ccnc3cc(C(=O)Nc4ccc(C(=O)O)cc4)nn23)cc1OC [9a, 4-(7-(3,4-Dimethoxyphenyl)pyrazolo[1,5-a]pyrimidine-2-carboxamido)benzoic Acid]
[1]
  fold less potent than Cact-3: 17 fold
[2]
  fold more soluble than Cact-3: 88 fold

## COc1ccc(-c2ccnc3cc(C(=O)Nc4ccc(C(=O)O)cc4F)nn23)cc1OC [9b, 4-(7-(3,4-Dimethoxyphenyl)pyrazolo[1,5-a]pyrimidine-2-carboxamido)-3-fluorobenzoic Acid]
[1]; YFP EC50 vs 9a
  times more potent than 9a: 7 times
[2]; vs 9a
  solubility/YFP ratio, fold less than 9a: 2 fold

## CCOc1ccc(NC(=O)c2cc3nccc(-c4ccc(OC)c(OC)c4)n3n2)cc1 [compound 1, 7-(3,4-Dimethoxyphenyl)-N-(4-ethoxyphenyl)pyrazolo[1,5-a]pyrimidine-2-carboxamide]
[3]; 2.5 μL eye drops, once
  time of maximal tear volume after administration: 3 h
[3]
  effect on tear volume: dose-dependent increase
[2]; PBS, pH 7.5
  solubility at 90 min: 0.059 µM (≈ 0.0247 µg/mL)
[4]
  Solubility: 72 µM (≈ 30.1 µg/mL)

## COc1ccc(-c2ccnc3cc(C(=O)Nc4ccc(C(=O)N5CCN(C)CC5)cc4)nn23)cc1OC.Cl [11c, 7-(3,4-Dimethoxyphenyl)-N-(4-(4-methylpiperazine-1-carbonyl)phenyl)pyrazolo[1,5-a]pyrimidine-2-carboxamide Hydrochloride]
[1]; YFP EC50 vs 11a
  fold more potent than 11a: 13 fold
[1]
  fold less potent than Cact-3: 16 fold
[2]
  fold more soluble than Cact-3: 4017 fold

## COC(=O)c1ccc(CNC(=O)c2cc3nccc(-c4ccc(OC)c(OC)c4)n3n2)cc1 [5g, Methyl 4-((7-(3,4-dimethoxyphenyl)pyrazolo[1,5-a]pyrimidine-2-carboxamido)methyl)benzoate]
[1]; YFP EC50 vs 5d
  fold less potent than 5d: 34 fold

## COc1ccc(-c2ccnc3cc(C(=O)Nc4ccc(C(=O)N5CCOCC5)cc4)nn23)cc1OC [10a, 7-(3,4-Dimethoxyphenyl)-N-(4-(morpholine-4-carbonyl)phenyl)pyrazolo[1,5-a]pyrimidine-2-carboxamide]
[2]
  Solubility: completely insoluble

## COc1ccc(-c2ccnc3cc(C(=O)N4CCN(C(=O)c5ccccc5)CC4)nn23)cc1OC [16b, (4-Benzoylpiperazin-1-yl)(7-(3,4-dimethoxyphenyl)pyrazolo[1,5-a]pyrimidin-2-yl)methanone]
[1]; YFP EC50 vs 16a
  fold more potent than 16a: 7 fold

## COc1ccc(-c2ccnc3cc(C(=O)Nc4ccc(OCCN5CCOCC5)cc4)nn23)cc1OC [5e, 7-(3,4-Dimethoxyphenyl)-N-(4-(2-morpholinoethoxy)phenyl)pyrazolo[1,5-a]pyrimidine-2-carboxamide]
[2]
  Solubility: completely insoluble

## COc1ccc(-c2ccnc3cc(C(=O)N4CCN(C(=O)c5ccccc5)[C@@H](C)C4)nn23)cc1OC [16d, (S)-(4-Benzoyl-3-methylpiperazin-1-yl)(7-(3,4-dimethoxyphenyl)pyrazolo[1,5-a]pyrimidin-2-yl)methanone]
[5]
  mRNA expression level of IL-17: significantly decreased
[6]
  effect on scopolamine-induced tear volume decrease: significantly and almost completely restored
[7]
  effect on intracellular cAMP level: slightly increased
[8]
  effect on cell viability of ConjE: did not affect
[9]
  mRNA expression level of MMP-2: significantly decreased
[10]
  effect on ANO1 channel activity: did not affect
[11]
  mRNA expression level of TNF-α: significantly decreased
[12]
  effect on corneal erosion: significantly reduced
[13]
  effect on cell viability of CorE: did not affect
[3]
  Emax (tear volume): higher than Cact-3
  effect on tear volume: dose-dependent increase
[14]
  effect on VRAC channel activity: did not affect
[15]; mean conjunctiva
  AUC0-24: 4734.0 ng·h/mL or ng·h/g
  AUC0-inf: 13741.0 ng·h/mL or ng·h/g
  AUC0-last: 9819.0 ng·h/mL or ng·h/g
[15]; mean cornea
  AUC0-24: 19409.0 ng·h/mL or ng·h/g
  AUC0-inf: 35802.0 ng·h/mL or ng·h/g
  AUC0-last: 28349.0 ng·h/mL or ng·h/g
[15]; topical ocular administration 0.1 mg/eye
  adverse effects during the PK study: No adverse effects
[15]; cornea and conjunctiva
  period maintained in cornea and conjunctiva: > 8 h
[16]
  mRNA expression level of IL-1β: significantly decreased
[4]
  Solubility: > 2000 µM

## O=c1ccn([C@@H]2O[C@H](COP(=O)(O)OP(=O)(O)OP(=O)(O)OP(=O)(O)OC[C@H]3O[C@@H](n4ccc(=O)[nH]c4=O)[C@H](O)[C@@H]3O)[C@@H](O)[C@H]2O)c(=O)[nH]1 [diquafosol, reference compound]
[5]
  mRNA expression level of IL-17: significantly reduced
[6]
  effect on scopolamine-induced tear volume decrease: significant recovery
[9]
  mRNA expression level of MMP-2: significantly reduced
[11]
  mRNA expression level of TNF-α: significantly reduced

## COc1ccc(-c2ccnc3cc(C(=O)Nc4ccc(N5CCOCC5)cc4)nn23)cc1OC [5f, 7-(3,4-Dimethoxyphenyl)-N-(4-morpholinophenyl)pyrazolo[1,5-a]pyrimidine-2-carboxamide]
[2]
  Solubility: completely insoluble

## COc1ccc(-c2ccnc3cc(C(=O)NCc4ccc(N5CCOCC5)cc4)nn23)cc1OC [5h, 7-(3,4-Dimethoxyphenyl)-N-(4-morpholinobenzyl)pyrazolo[1,5-a]pyrimidine-2-carboxamide]
[1]; YFP EC50 vs 5f
  fold less potent than 5f: 101 fold

## O=C(O)c1ccc(/C=C2\SC(=S)N(c3cccc(C(F)(F)F)c3)C2=O)cc1 [CFTRinh-172]
[17]
  block of 16d-induced CFTR chloride current: completely blocked
[18]
  inhibition of 16d-induced CFTR current (short-circuit current): fully inhibited
[19]
  inhibition of 16d-induced CFTR whole-cell currents: completely inhibited
